Converted amounts (≈) assume the structure as drawn.
Experiments:
[1] = test system: Aspergillus fumigatus ATCC 204305; assay: Anti-fungal broth microdilution (MIC), fungus A; format: cell-based; conditions: filamentous protocol, more than 50% growth inhibition, 48 to 72 h
Protocol: (§1) Anti-fungal activity of selected compounds of the invention was assessed by means of anti-fungal susceptibility tests as follows.
(§2) The antifungal activities of the compounds of the invention against different fungi were measured according to standard broth microdilution methods of the US National Committee for Clinical Laboratory standards (NCCLS) for yeasts (NCCLS document M27-A, 1997) and filamentous fungi (NCCLS document M38-A, 2002).
(§3) Stock solutions of compounds of the invention were freshly prepared on the days of experiments equal to 1.28 mg/10 ml media. Serial dilutions were performed to achieve the following testing concentrations: 64 μg/ml, 32 μg/ml, 16 μg/ml, 8 μg/ml, 4 μg/ml, 2 μg/ml, 1 μg/ml, 0.5 μg/ml, 0.25 μg/ml and 0.125 μg/ml.
(§4) An inoculum of 10^6 CFU/ml of the fungi strain was prepared in the appropriate medium and transferred to test tubes for incubation.
(§5) The method is used to determine the minimum inhibitory concentrations (MIC) of drugs on fungi strains. […] For the filamentous fungi protocol, MIC determination took place after 48 to 72 h of culture at 35° C. and was defined at that concentration which produced more than 50% visible growth inhibition.

[2] = test system: Aspergillus fumigatus 322-384; assay: Anti-fungal broth microdilution (MIC), fungus B; format: cell-based; conditions: filamentous protocol, more than 50% growth inhibition, 48 to 72 h
Protocol: as §1, §2, §3, §4, §5

[3] = test system: Aspergillus fumigatus 040-200167; assay: Anti-fungal broth microdilution (MIC), fungus C; format: cell-based; conditions: filamentous protocol, more than 50% growth inhibition, 48 to 72 h
Protocol: as §1, §2, §3, §4, §5

[4] = test system: Candida albicans ATCC 10231; assay: Anti-fungal broth microdilution (MIC), fungus D; format: cell-based; conditions: yeast protocol, more than 80% inhibition, 48 h
Protocol: as §1, §2, §3, §4, §5

[5] = test system: Candida albicans ATCC 90028; assay: Anti-fungal broth microdilution (MIC), fungus E; format: cell-based; conditions: yeast protocol, more than 80% inhibition, 48 h
Protocol: as §1, §2, §3, §4, §5

[6] = test system: Candida albicans TS3; assay: Anti-fungal broth microdilution (MIC), fungus F; format: cell-based; conditions: yeast protocol, more than 80% inhibition, 48 h
Protocol: as §1, §2, §3, §4, §5

[7] = test system: Candida parapsilosis ATCC 22019; assay: Anti-fungal broth microdilution (MIC), fungus G; format: cell-based; conditions: yeast protocol, more than 80% inhibition, 48 h
Protocol: as §1, §2, §3, §4, §5

[8] = test system: Cryptococcus neoformans ATCC 90112; assay: Anti-fungal broth microdilution (MIC), fungus H; format: cell-based; conditions: yeast protocol, more than 80% inhibition, 48 h
Protocol: as §1, §2, §3, §4, §5

[9] = test system: Cryptococcus neoformans H99; assay: Anti-fungal broth microdilution (MIC), fungus I; format: cell-based; conditions: yeast protocol, more than 80% inhibition, 48 h
Protocol: as §1, §2, §3, §4, §5

[10] = test system: Cryptococcus gattii ATCC 32608; assay: Anti-fungal broth microdilution (MIC), fungus J; format: cell-based; conditions: yeast protocol, more than 80% inhibition, 48 h
Protocol: as §1, §2, §3, §4, §5

[11] = test system: Trypanosoma cruzi (Tulahuan-LACZ amstigotes in PEM); assay: In vitro drug activity assay, protozoon A; format: cell-based; conditions: amastigotes in murine peritoneal macrophages, 3 days
Protocol: (§6) In vitro activity of selected compounds of the invention against different protozoa was assessed as follows.
Murine (CD1) peritoneal macrophages were harvested 24 hours after starch induction and dispensed into 96-well plates at a concentration of 4×10^5 mL. After 24 hours, the cells were infected with Trypanosoma cruzi Tulahuan LAC-Z amastigotes (grown and cultured according to Buckner et al., Infection and Immunity 1999, 67(1): 403-409). 24 hours later, the infected cells were exposed to the test compounds (compounds of the invention as well as known prior art compounds) for 3 days and 50 μL of 500 μM CPRG-1% Nonidet P-40 was added to each well. The plates were read after 2 to 5 hours at 570 nm (Buckner et al., Antimicrobial Agents and Chemotherapy 1996, 40(11): 2592-2597). ED50 values were calculated with Msxlfit (IDBS).
(§7) The following protozoa were assessed: • A) Trypanosoma cruzi (Tulahuan-LACZ amstigotes in PEM, Lorente S O et al., Antimicrobial agents and chemotherapy 2004, 48(8): 2937-2950; Buckner et al., Infection and Immunity 1999, 67(1): 403-409; Buckner et al., Antimicrobial Agents and Chemotherapy 1996, 40(11): 2592-2597) • B) Trypanosoma brucei rhodesiense (strain STIB900, Lorente S O et al., Antimicrobial agents and chemotherapy 2004, 48(8): 2937-2950; Habtemariam S, BMC Pharmacology 2003, 3:6) • C) Plasmodium falciparum (strain K1, Korsinczky M et al., Antimicrobial agents and chemotherapy 2000, 44(8): 2100-2108; Thaitong S and Beale G H, Trans. R. Soc. Trop. Med. Hyg. 1981, 75: 271-273; Trager W and Jensen J B, Science 1976, 193: 673-675) • D) Plasmodium faiciparum (strain 3D7, Mu et al., PLoS Biology 2005, 3(10): e335)

[12] = test system: Trypanosoma brucei rhodesiense (strain STIB900); assay: In vitro drug activity assay, protozoon B; format: cell-based; conditions: bloodstream form trypomastigotes, 72 hours, Alamar Blue
Protocol: as §6
Trypanosoma brucei rhodesiense STIB900 bloodstream form trypomastigotes were maintained in HMI-18 medium (Hirumi H, Hirumi K, J Parasitol. 1989, 75(6):985-989) with 15% heat-inactivated fetal calf serum at 37° C., 5% CO2, humidified atmosphere. Trypomastigotes were washed and resuspended in fresh medium at a concentration of 2×10^5 mL. Test compounds were given to the trypomastigotes and plates were incubated for 72 hours at 37° C., 5% CO2, humidified atmosphere. At 72 hours the plates were assessed microscopically before Alamar Blue was added (Raz et al., Acta Trop. 1997, 68: 139-147). Plates were read after 5 to 6 hours at EX/EM 530/585 nm with a filter cutoff at 550 nm. ED50 values were calculated with Msxlfit (IDBS).
as §7

[13] = test system: Plasmodium falciparum (strain K1); assay: In vitro drug activity assay, protozoon C; format: cell-based; conditions: strain K1, 3[H]-hypoxanthine method
Protocol: as §6
(§8) Plasmodium falciparum strain K1 and strain 3D7 parasites were cultured according to Trager W and Jensen J B (Science 1976, 193: 673-675). In vitro drug susceptibility assays with the test compounds were carried out according to Korsinczky M et al. (Antimicrobial agents and chemotherapy 2000, 44(8): 2100-2108) and Fivelman Q L et al. (Antimicrobial agents and chemotherapy 2004, 48(11): 4097-4102) using a ^3[H]-hypoxanthine radioisotope method. ED50 values were calculated with Msxlfit (IDBS).
as §7

[14] = test system: Plasmodium faiciparum (strain 3D7); assay: In vitro drug activity assay, protozoon D; format: cell-based, Plasmodium falciparum; conditions: strain 3D7, 3[H]-hypoxanthine method
Protocol: as §6, §8, §7

[15] = test system: Moraxella catarrhalis DMS 11994 (ATCC 43617); assay: Anti-bacterial bouillon microdilution assay (MIC), bacterium D; format: cell-based; conditions: 24 h
Protocol: (§9) Selected compounds of the invention were tested in a bouillon microdilution assay method according to the DIN 58940 (www.din.de) guidelines for determination of susceptibility of bacterial strains with regard to cell growth inhibition. The assay method quantifies bacterial cell growth which corresponds to the turbidity of the liquid culture medium by photometric measurement carried out at 595 nm.
(§10) The method of MIC determination was performed according to DIN 58940-5. The volumina were adapted according to the microdilution method as described in DIN 58940-7 guideline.
(§11) Dependent on water solubility, compounds of the invention were dissolved either in water or ethanol in a concentration of 10 mg/ml. Subsequently, the stock was further diluted in water to a concentration of 512 μg/ml. The following serial dilutions (factor 2) were performed in water resulting in the following […] testing concentrations: 256 μg/ml, 128 μg/ml, 64 μg/ml, 32 μg/ml, 16 μg/ml, 8 μg/ml, 4 μg/ml, 2 μg/ml, 1 μg/ml, 0.5 μg/ml, 0.25 μg/ml and 0.125 μg/ml. Diluted compounds of the invention were transferred in 100 μl volume to the microtiter plate wells.
(§12) Pre-cultures of bacteria were grown in appropriate liquid media (refer to ATCC webpage, www.atcc.org) and afterwards were inoculated in corresponding liquid medium. 100 μl of the inoculums [adjusted to an amount of app. 1×10^6 microorganisms per ml (range of 10^5-10^8 microorganisms per ml)] were added to each of the testing compound concentrations and cultivated under the appropriate conditions.
(§13) Before and after incubation, bacterial growth was determined by photometric analysis against a positive control containing growing bacteria without compound and a sterile/negative control containing only the medium.

[16] = test system: Bacteroides fragilis DSM 2151 (ATCC 25285); assay: Anti-bacterial bouillon microdilution assay (MIC), bacterium E; format: cell-based; conditions: anaerob, 24 h
Protocol: as §9, §10, §11, §12, §13

| Compound | MIC, fungus A [1] | MIC, fungus B [2] | MIC, fungus C [3] | MIC, fungus D [4] | MIC, fungus E [5] | MIC, fungus F [6] | MIC, fungus G [7] | MIC, fungus H [8] | MIC, fungus I [9] | MIC, fungus J [10] | ED50 (μg/mL), protozoon A [11] | ED50 (μg/mL), protozoon B [12] | ED50 (μg/mL), protozoon C [13] | ED50 (μg/mL), protozoon D [14] | further results |
| --- | --- | --- | --- | --- | --- | --- | --- | --- | --- | --- | --- | --- | --- | --- | --- |
| CCCCCCCCCCCCCCCCOP(=O)([O-])OC1CC[N+](C)(Cc2ccccc2)CC1 (stereo not drawn) [Compound 1, Phosphoric acid 1-benzyl-1-methyl-piperidin-4-yl ester hexadecyl ester] | 2 µg/mL (≈ 3.92 µM) | 2 µg/mL (≈ 3.92 µM) | 4 µg/mL (≈ 7.85 µM) | 2 µg/mL (≈ 3.92 µM) | 1 µg/mL (≈ 1.96 µM) | 1.5 µg/mL (≈ 2.94 µM) | 3 µg/mL (≈ 5.89 µM) | 1.5 µg/mL (≈ 2.94 µM) | 2 µg/mL (≈ 3.92 µM) | 1 µg/mL (≈ 1.96 µM) | 1.71 µg/mL (≈ 3.35 µM) | 18.80 µg/mL (≈ 36.9 µM) | 6.93 µg/mL (≈ 13.6 µM) | 9.97 µg/mL (≈ 19.6 µM) |  |
| CCCCCCCCCCCCCCCCOP(=O)([O-])OCC[N+]12CCC(CC1)CC2 [Compound 3, Phosphoric acid 2-(1-aza-bicyclo[2.2.2]oct-1-yl)-ethyl ester hexadecyl ester] | 3 µg/mL (≈ 6.53 µM) | 2 µg/mL (≈ 4.35 µM) | 4 µg/mL (≈ 8.7 µM) | 1 µg/mL (≈ 2.18 µM) | 1 µg/mL (≈ 2.18 µM) | 2 µg/mL (≈ 4.35 µM) | 2 µg/mL (≈ 4.35 µM) | 1.5 µg/mL (≈ 3.26 µM) | 1 µg/mL (≈ 2.18 µM) | 0.75 µg/mL (≈ 1.63 µM) | 0.33 µg/mL (≈ 0.718 µM) | 25.03 µg/mL (≈ 54.5 µM) | 8.03 µg/mL (≈ 17.5 µM) | 2.25 µg/mL (≈ 4.9 µM) | MIC, bacterium D [15]: 8 µg/mL (≈ 17.4 µM); MIC, bacterium E [16]: 128 µg/mL (≈ 278 µM) |
| CCCCCCCCCCCCCCCCOP(=O)([O-])OC1CC[N+](C)(CCc2ccccc2)CC1 (stereo not drawn) [Compound 4, Phosphoric acid hexadecyl ester 1-methyl-1-phenethyl-piperidin-4-yl ester] |  |  |  |  |  |  |  |  |  |  | 1.93 µg/mL (≈ 3.69 µM) | 12.29 µg/mL (≈ 23.5 µM) | 5.44 µg/mL (≈ 10.4 µM) | 15.32 µg/mL (≈ 29.3 µM) |  |
| CCCCCCCCCCCCCCCCCCOP(=O)([O-])OC1CC[N+](CC)(CC)CC1 [Compound 5, Phosphoric acid 1,1-diethyl-piperidin-4-yl ester octadecyl ester] |  |  |  |  |  |  |  |  |  |  | 1.43 µg/mL (≈ 2.92 µM) | 14.20 µg/mL (≈ 29 µM) | 21.26 µg/mL (≈ 43.4 µM) | 16.31 µg/mL (≈ 33.3 µM) | MIC ([1]; Aspergillus fumigatus, ATCC204305): 6 µg/mL (≈ 12.3 µM); MIC ([2]; Aspergillus fumigatus, 322384): 8 µg/mL (≈ 16.3 µM); MIC ([3]; Aspergillus fumigatus, 040200167): 24 µg/mL (≈ 49 µM); MIC [4]: 2 µg/mL (≈ 4.08 µM); MIC [5]: 2 µg/mL (≈ 4.08 µM); MIC [6]: 2 µg/mL (≈ 4.08 µM); MIC [7]: 3 µg/mL (≈ 6.13 µM); MIC [8]: 1.5 µg/mL (≈ 3.06 µM); MIC [9]: 2 µg/mL (≈ 4.08 µM); MIC [10]: 0.75 µg/mL (≈ 1.53 µM) |

Source: US20070167408A1, “NOVEL ALKYL PHOSPHOLIPID DERIVATIVES WITH REDUCED CYTOTOXICITY AND USES THEREOF” (ZENTARIS GmbH, priority 2005, published 2007)
